Data on six molecules can be found in article PMC9918900, “New Succinimide–Thiazolidinedione Hybrids as Multitarget Antidiabetic Agents: Design, Synthesis, Bioevaluation, and Molecular Modelling Studies” (Molecules, 2023).

The structures appear in SMILES notation. Where two headings read alike, the source gives them in different places.

One assay addresses α-glucosidase. Briefly: in vitro α-glucosidase inhibitory activity. The format is biochemical, Homo sapiens. As to the method:
The inhibitory analyses for α-glucosidase were carried out in accordance with the protocols reported in the literature; the inhibitory activities of the synthesized hybrids were calculated utilizing screening assay tools.

In a further assay the target is T1, α-amylase (Homo sapiens, UniProt P04746).
T1 sequence (P04746 16-511): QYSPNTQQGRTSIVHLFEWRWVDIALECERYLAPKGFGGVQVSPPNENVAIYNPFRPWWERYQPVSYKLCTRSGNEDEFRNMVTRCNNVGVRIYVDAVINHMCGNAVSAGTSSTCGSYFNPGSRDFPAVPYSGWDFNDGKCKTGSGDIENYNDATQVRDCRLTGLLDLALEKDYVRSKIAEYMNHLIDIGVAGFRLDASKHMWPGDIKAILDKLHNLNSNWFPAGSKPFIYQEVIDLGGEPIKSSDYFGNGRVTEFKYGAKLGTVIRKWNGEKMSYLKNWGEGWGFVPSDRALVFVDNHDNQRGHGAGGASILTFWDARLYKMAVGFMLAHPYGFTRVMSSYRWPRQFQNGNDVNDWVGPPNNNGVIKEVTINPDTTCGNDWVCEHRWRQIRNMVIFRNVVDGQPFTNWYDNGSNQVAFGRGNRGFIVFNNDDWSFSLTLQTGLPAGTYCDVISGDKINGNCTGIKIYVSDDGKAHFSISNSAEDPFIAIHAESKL
Briefly: in vitro α-amylase inhibitory activity. The format is biochemical. As for the experimental part:
The test samples were added in alpha-amylase solution. The enzyme solution was prepared with enzyme and buffer solution. The mixture of the samples and enzyme was then incubated. Then, starch and dinitrosalicylic acid solution was added. The same was performed for both test compounds and the standard drug. […] The percent alpha-amylase inhibition activity and its IC50 values were calculated and confirmed as per the previous procedure.

The target of another assay is T2, PTP1B (Homo sapiens, UniProt P18031).
T2 sequence (P18031 1-435): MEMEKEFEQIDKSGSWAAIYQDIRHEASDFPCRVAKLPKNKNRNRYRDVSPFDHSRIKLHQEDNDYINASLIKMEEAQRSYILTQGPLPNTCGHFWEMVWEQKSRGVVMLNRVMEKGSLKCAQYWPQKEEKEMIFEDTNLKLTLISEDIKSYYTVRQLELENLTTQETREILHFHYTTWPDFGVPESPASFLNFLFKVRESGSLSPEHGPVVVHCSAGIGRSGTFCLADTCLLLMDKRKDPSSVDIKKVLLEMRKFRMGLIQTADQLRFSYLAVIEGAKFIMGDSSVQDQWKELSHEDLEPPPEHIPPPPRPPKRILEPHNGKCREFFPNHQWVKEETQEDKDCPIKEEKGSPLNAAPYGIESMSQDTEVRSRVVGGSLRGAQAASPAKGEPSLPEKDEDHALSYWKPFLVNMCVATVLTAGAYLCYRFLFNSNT
Briefly: PTP1B assay (pNPP substrate). The format is biochemical. As to the method: The aforementioned newly synthesize succinimides and thiazolidinedione hybrids were tested against the PTP1B enzyme to determine their ability to inhibit the negative regulation of insulin as well as leptin signaling. The PTP1B test was performed with a small modification to the method described in the publications. The enzyme efficiency was evaluated using […] (pNPP) as a substrate. For the buffer solution, 0.5 millimolar (mM) of ethylene diamine tetraacetic acid (EDTA), 1 mM of mercaptoethanol, 0.55 mM of dithiothreitol (DTT), and 12.49 mM of TRIS hydrochloride (ph = 7.4) were used. The experiment was carried out by mixing 10.0 μL of the test compound solutions with 20.0 μL of the enzyme (1 μg/mL), subsequently injecting 40.0 μL of 4.0 mM 4-nitrophenyl dihydrogen phosphate in 130.5 μL of the prescribed buffer in a microplate well at 37 °C for 10 min. pNP was formed during the enzymatic process, which was monitored for 30 min. The IC50 values were derived using a non-linear regression analysis of the fraction of the product generated vs. the log of the inhibitory concentration.

Another assay deals with T3, human DPP-4 enzyme (Homo sapiens, UniProt P27487).
T3 construct: purchased
Briefly: DPP-4 activity bioassay. The format is biochemical. The settings on record: for inhibition at 31.25 µM / inhibition at 62.5 µM / inhibition at 125 µM / inhibition at 250 µM: read-out: DPP4 (inhibition) (converted); for inhibition at 500 µM: read-out: DPP4 (inhibition); for IC50: read-out: IC50 DPP4. As to the method: All succinimides and thiazolidinedione hybrids were tested for DPP-4 inhibitory effects on a human DPP-4 enzyme using the methodology published before. The DPP-4 kit was used to measure the inhibition. L-thiazolidine (P32/98) was included as a reference. The hybrids and DPP-4 enzyme were both adulterated 1/50 in the assay buffer (PH = 7.4, 25 mM Tris). Following that, a microplate well was filled with 5 μL of assay buffer, 3 μL of enzyme solution, and 2 μL of adequately diluted test chemical solutions. After a 12-min incubation period at 37.5 °C, a diluted substrate solution of 25 μL was added into the solution. A multi-mode reader was used to assess the fluorescence. […] PRISM5 was used to calculate the IC50 values and compare the inhibition ratio to the control without the inhibitor.

Setting [1] is: 31.25 µM, read-out: % α-Amylase Inhibition (converted).
The mark [2] stands for this setting: 62.5 µM, read-out: % α-Amylase Inhibition (converted).
Setting [3] is: 125 µM, read-out: % α-Amylase Inhibition (converted).
Setting [4] is: 250 µM, read-out: % α-Amylase Inhibition (converted).
The mark [5] stands for this setting: 500 µM, read-out: % α-Amylase Inhibition.
Where [6] appears, read: read-out: % α-Amylase Inhibition.

T3 sequence (P27487 whole entry): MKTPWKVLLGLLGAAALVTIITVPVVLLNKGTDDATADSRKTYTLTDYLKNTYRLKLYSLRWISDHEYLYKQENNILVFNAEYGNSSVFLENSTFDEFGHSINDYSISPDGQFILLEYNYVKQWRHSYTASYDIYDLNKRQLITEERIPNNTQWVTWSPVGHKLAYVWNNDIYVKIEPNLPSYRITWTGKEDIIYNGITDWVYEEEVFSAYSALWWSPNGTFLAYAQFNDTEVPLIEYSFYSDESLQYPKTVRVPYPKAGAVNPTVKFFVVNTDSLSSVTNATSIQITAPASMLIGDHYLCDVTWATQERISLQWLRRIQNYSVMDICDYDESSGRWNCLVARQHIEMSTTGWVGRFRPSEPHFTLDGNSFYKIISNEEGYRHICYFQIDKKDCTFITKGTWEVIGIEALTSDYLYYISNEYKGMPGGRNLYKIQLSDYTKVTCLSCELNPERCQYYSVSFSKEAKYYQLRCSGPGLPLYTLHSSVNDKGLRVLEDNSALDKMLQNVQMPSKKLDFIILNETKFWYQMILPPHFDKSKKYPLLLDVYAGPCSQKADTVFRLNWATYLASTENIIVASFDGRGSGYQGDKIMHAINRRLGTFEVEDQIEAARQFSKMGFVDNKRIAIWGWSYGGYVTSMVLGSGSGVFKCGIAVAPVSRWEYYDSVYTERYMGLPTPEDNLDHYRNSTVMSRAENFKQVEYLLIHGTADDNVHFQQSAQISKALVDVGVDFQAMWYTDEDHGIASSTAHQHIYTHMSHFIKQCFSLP

By IC50 is commonly meant the concentration that inhibits the measured activity by half. Broadly, the inhibition is the relative decrease from the control value, in per cent. With `CC(C)(/C=C1\SC(=O)N(C(=O)CN2CCOCC2)C1=O)[C@@H]1CC(=O)NC1=O` [10a], the IC50 against α-glucosidase was found to be 16.5 µM; against α-amylase, 21.9 µM; against PTP1B it was 12 µM; on human DPP-4 enzyme, 5.38 µM. The “% α-Glucosidase Inhibition” value in the assay on α-glucosidase (31.25 µM) stood at 54.56 ± 1.73%; in the assay with α-glucosidase (62.5 µM), 65.44 ± 0.58%; with α-glucosidase (125 µM), 72.93 ± 0.67%; in the assay on α-glucosidase (250 µM) it was 75.58 ± 0.63%; in the assay with α-glucosidase (500 µM) it was 79.49 ± 0.6%. Further, the inhibition at 31.25 µM at α-amylase (setting [1]) was 54.6%; at PTP1B it was 62.9%; at human DPP-4 enzyme it was 67.5%. Also, the results for the inhibition at 62.5 µM on α-amylase (setting [2]), on PTP1B and on human DPP-4 enzyme were 57.5%, 69.2% and 72.5%, respectively. In addition, the figures for the inhibition at 125 µM on α-amylase (setting [3]), on PTP1B and at human DPP-4 enzyme were 72.8%, 75.1% and 77.2%, respectively. In addition, the inhibition at 250 µM was 77.6% at α-amylase (setting [4]), 82.6% against PTP1B and 82.5% at human DPP-4 enzyme. Also, the results for the inhibition at 500 µM at α-amylase (setting [5]), against PTP1B and at human DPP-4 enzyme were 82.61 ± 0.77%, 88.61 ± 0.43% and 87.45 ± 0.59%, respectively.

For `CN1C(=O)C[C@@H](C(C)(C)/C=C2\SC(=O)N(C(=O)CN3CCOCC3)C2=O)C1=O` [10b], the IC50 at α-glucosidase was 27.4 µM; on α-amylase, 21.2 µM; against PTP1B it was 16.8 µM; at human DPP-4 enzyme, 20.5 µM. The “% α-Glucosidase Inhibition” value with α-glucosidase (31.25 µM) worked out at 51.72 ± 0.66%; in the assay on α-glucosidase (62.5 µM), 57.68 ± 0.49%; in the assay with α-glucosidase (125 µM), 70.60 ± 0.46%; with α-glucosidase (250 µM), 75.62 ± 0.40%; in the assay on α-glucosidase (500 µM), 79.48 ± 0.74%. Moreover, the figures for the inhibition at 31.25 µM on α-amylase (setting [1]), on PTP1B and at human DPP-4 enzyme were 48.5%, 57.2% and 54.3%, respectively. For the same molecule, the inhibition at 62.5 µM on α-amylase (setting [2]) was 65.5%; against PTP1B, 65.8%; at human DPP-4 enzyme, 62.7%. Besides, the inhibition at 125 µM is 70.5% at α-amylase (setting [3]), 72.8% at PTP1B and 69.4% at human DPP-4 enzyme. Also, the inhibition at 250 µM at α-amylase (setting [4]) is 74.7%; against PTP1B, 77.1%; at human DPP-4 enzyme, 75.8%. Also, the inhibition at 500 µM came to 79.37 ± 0.69% at α-amylase (setting [5]), 85.3 ± 2.87% on PTP1B and 81.3 ± 1.42% on human DPP-4 enzyme.

As to `CC(C)(/C=C1\SC(=O)N(C(=O)CN2CCOCC2)C1=O)[C@@H]1CC(=O)N(c2ccccc2)C1=O` [10c], the IC50 stood at 25.6 µM against α-glucosidase, 28.3 µM against α-amylase, 19 µM against PTP1B and 12.9 µM at human DPP-4 enzyme. For the same molecule, the “% α-Glucosidase Inhibition” value with α-glucosidase (31.25 µM) was 62.72 ± 1.01%; in the assay on α-glucosidase (62.5 µM) it was 65.08 ± 0.47%; with α-glucosidase (125 µM), 71.42 ± 0.43%; with α-glucosidase (250 µM) it was 76.58 ± 1.12%; in the assay on α-glucosidase (500 µM), 81.53 ± 0.71%. The inhibition at 31.25 µM on α-amylase (setting [1]) is 62.4%; on PTP1B, 53.5%; at human DPP-4 enzyme, 57.4%. Further, the figures for the inhibition at 62.5 µM on α-amylase (setting [2]), against PTP1B and on human DPP-4 enzyme were 67.6%, 63.4% and 62.6%, respectively. Besides, the inhibition at 125 µM at α-amylase (setting [3]) is 74.3%; against PTP1B, 69.3%; at human DPP-4 enzyme, 67.4%. Also, the inhibition at 250 µM at α-amylase (setting [4]) is 81.7%; against PTP1B, 73.4%; at human DPP-4 enzyme it was 72.6%. Besides, the results for the inhibition at 500 µM on α-amylase (setting [5]), at PTP1B and at human DPP-4 enzyme were 88.6 ± 1.12%, 79.4 ± 1.04% and 77.4 ± 1.51%, respectively.

As for `COc1ccc(N2C(=O)C[C@@H](C(C)(C)/C=C3\SC(=O)N(C(=O)CN4CCOCC4)C3=O)C2=O)cc1` [10e], the IC50 on α-glucosidase was 13.2 µM; against α-amylase, 9.66 µM; at PTP1B, 19.5 µM; at human DPP-4 enzyme it was 14.7 µM. For the same molecule, the “% α-Glucosidase Inhibition” value was 52.58 ± 0.63% with α-glucosidase (31.25 µM); 74.94 ± 1.13% in the assay with α-glucosidase (62.5 µM); 79.84 ± 0.30% in the assay on α-glucosidase (125 µM); 81.08 ± 0.47% in the assay with α-glucosidase (250 µM); 86.44 ± 0.58% in the assay with α-glucosidase (500 µM). Moreover, the inhibition at 31.25 µM on α-amylase (setting [1]) was 73.4%; against PTP1B, 56.4%; on human DPP-4 enzyme, 61.3%. Further, the inhibition at 62.5 µM at α-amylase (setting [2]) was 78.2%; at PTP1B, 63.5%; on human DPP-4 enzyme it was 67.3%. Further, the inhibition at 125 µM is 82.5% at α-amylase (setting [3]), 67.2% against PTP1B and 74.5% on human DPP-4 enzyme. In addition, the results for the inhibition at 250 µM on α-amylase (setting [4]), against PTP1B and on human DPP-4 enzyme were 88.6%, 75.8% and 82.5%, respectively. Also, the figures for the inhibition at 500 µM on α-amylase (setting [5]), against PTP1B and on human DPP-4 enzyme were 92.7 ± 1.3%, 83.51 ± 0.54% and 88.5 ± 2.06%, respectively.

Take `C[C@H]1O[C@H](O[C@H]2[C@H](O)[C@@H](O)[C@@H](O[C@H]3[C@H](O)[C@@H](O)C(O)O[C@@H]3CO)O[C@@H]2CO)[C@H](O)[C@@H](O)[C@@H]1N[C@H]1C=C(CO)[C@@H](O)[C@H](O)[C@H]1O` (some centres unmarked) [Acarbose, acarbose, reference compound]: the “% α-Glucosidase Inhibition” value in the assay on α-glucosidase (31.25 µM) is 71.22 ± 0.47%. Also, the “% α-Glucosidase Inhibition” value with α-glucosidase (62.5 µM) is listed as 76.44 ± 0.28%. Also, the “% α-Glucosidase Inhibition” value with α-glucosidase (125 µM) was 80.90 ± 1.11%. Also, the “% α-Glucosidase Inhibition” value with α-glucosidase (500 µM) is listed as 94.40 ± 0.03%. At α-amylase (setting [6]), the inhibition at 31.25 µM was 70.8%, the inhibition at 62.5 µM is 75.4%, the inhibition at 125 µM was 80.6% and the inhibition at 250 µM was 86.5%. Moreover, the inhibition at 500 µM at α-amylase (setting [6]) came to 93.1 ± 1.04%.

At PTP1B, `C[C@H]1[C@H](C)CC[C@]2(C(=O)O)CC[C@]3(C)C(=CC[C@@H]4[C@@]5(C)CC[C@H](O)C(C)(C)[C@@H]5CC[C@]43C)[C@H]12` [Ursolic acid, ursolic acid, reference compound] showed an inhibition at 31.25 µM of 71.8%, an inhibition at 62.5 µM of 76.4%, an inhibition at 125 µM of 81.6% and an inhibition at 250 µM of 87.5%. For the same molecule, testing at 500 µM against PTP1B gave an inhibition of 94.1 ± 1.04%.
